Source: publication PMC7343187, “Control of mRNA translation by dynamic ribosome modification” (PLoS Genetics, 2020)
One block for each compound: values may come before it.

What was measured:
RimK [1] = biological target: T1, RimK (Pseudomonas fluorescens, UniProt C3KE61); test: PK/LDH-coupled ATPase assay (NADH oxidation); type: biochemical; conditions: 100 mM Tris-Cl pH 9.0, 20 mM MgSO4, 25 °C
T1 construct: His6-tagged, expressed in E. coli BL21(DE3) pLysS, Ni-NTA purified
T1 sequence (C3KE61 1-301): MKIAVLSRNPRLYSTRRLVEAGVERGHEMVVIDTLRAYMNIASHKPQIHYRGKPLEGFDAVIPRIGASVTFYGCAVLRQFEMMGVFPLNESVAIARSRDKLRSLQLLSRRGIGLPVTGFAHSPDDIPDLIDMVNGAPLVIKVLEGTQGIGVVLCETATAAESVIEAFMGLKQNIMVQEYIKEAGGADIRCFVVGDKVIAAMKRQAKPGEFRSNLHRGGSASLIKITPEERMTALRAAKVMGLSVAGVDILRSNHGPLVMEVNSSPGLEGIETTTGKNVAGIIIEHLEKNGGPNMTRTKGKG

RimK [2] = biological target: T1, RimK; test: RpsF glutamation assay, SDS-PAGE and mass spectrometry; type: biochemical; conditions: acceptor RpsF10glu (SBW25); 20 mM ATP, 20 mM MgSO4, pH 9.0, room temperature
RimK [3] = biological target: T1, RimK; test: PK/LDH-coupled ATPase assay; RpsF glutamation SDS-PAGE gel shift; type: biochemical; conditions: activator; ATPase with 25 uM cdG, 2.5 uM RimK, pH 9.0, 20 mM MgSO4, 25 °C
[4] = biological target: SBW25 RimK (Pseudomonas fluorescens SBW25) (UniProt C3KE61)

Compound: Nc1ncnc2c1ncn2[C@@H]1O[C@H](COP(=O)(O)OP(=O)(O)OP(=O)(O)O)[C@@H](O)[C@H]1O [ATP]
PK/LDH-coupled ATPase assay (NADH oxidation) (RimK [1]): plotting the specific activity of the enzyme (nmol ATP hydrolyzed/min/mg protein) versus ATP concentration

Compound: N[C@@H](CCC(=O)O)C(=O)O [L-glutamate]
RpsF glutamation assay, SDS-PAGE and mass spectrometry (RimK [2]): addition of RimK resulted in unregulated modification of RpsF10glu in a glutamate-dependent manner

Compound: Nc1nc2c(ncn2[C@@H]2O[C@@H]3COP(=O)(O)O[C@H]4[C@@H](O)[C@H](n5cnc6c(=O)[nH]c(N)nc65)O[C@@H]4COP(=O)(O)O[C@H]3[C@H]2O)c(=O)[nH]1 [cdG, cyclic-di-GMP]
PK/LDH-coupled ATPase assay; RpsF glutamation SDS-PAGE gel shift (RimK [3]): cdG was shown to stimulate both ATPase activity (Fig 2A) and RpsF modification (Fig 2B)

Kd fitted to the RimK ATPase activity data of Fig 2E with the four-state kinetic model (RimK, RimK.RimA, RimK.cdG, RimK.cdG.RimA) [4]: 200 nM | Kd fitted to the RimK ATPase activity data of Fig 2E with the two-state kinetic model (RimK, RimK*), which the paper calls unlikely [4]: 83.2 nM
Compound: SBW25 RimA (enzyme)
